Test results from US20260158158A1, “ANTIBODY-DRUG CONJUGATE, PREPARATION METHOD THEREFOR AND USE THEREOF” (HANGZHOU ADCORIS BIOPHARMA CO., LTD, priority 2023, published 2026).

Experiments:
Type in all cases: in vivo, BALB/c nude mice
[1] = test system: Pancreatic cancer cell BXPC-3; assay: Tumor growth inhibition in BXPC-3 CDX model (nude mouse xenograft); conditions: BIW × 3 weeks
Text: (§1) Method for testing tumor inhibitory activity of ADC in nude mouse xenograft model (cell-derived xenograft, CDX): Pancreatic cancer cell BXPC-3, lung adenocarcinoma cell NCI-H1975, triple-negative breast cancer cell MDA-MB-231, and esophageal squamous carcinoma cell KYSE-150 were subjected to monolayer culturing in vitro. When cell saturation reached 80%-90%, the cells were digested with trypsin-EDTA and centrifuged. The supernatant was discarded. The cells were re-suspended in PBS. The cell suspension was adjusted to an appropriate concentration. BXPC-3, NCI-H1975, MDA-MB-231, and KYSE-150 cells (2-10×10^6 cells/0.1 mL) were separately subcutaneously inoculated into BALB/c nude mice. The animals and the growth of transplanted tumors were observed regularly. When the tumor volume reached approximately 100-200 mm^3, the mice were randomly divided into groups based on tumor volume and body weight, with 6 animals per group. The animals were administered regularly via intravenous injection. Twice a week, the longer diameter a (mm) and shorter diameter b (mm) of the tumor were measured with a vernier caliper and the body weight of the mice was measured. The tumor volume (V) was calculated according to the following formula: V=½×a×b^2 (mm^3), in which a and b represented the length and width of the tumor, respectively. A growth curve was plotted. Finally, the tumor was excised and weighed. […]

[2] = test system: lung adenocarcinoma cell NCI-H1975; assay: Tumor growth inhibition in NCI-H1975 model (nude mouse xenograft); conditions: NCI-H1975, 10 mg/kg iv, BIW × 2 weeks
Text: as §1

[3] = test system: triple-negative breast cancer cell MDA-MB-231; assay: Tumor growth inhibition in MDA-MB-231 CDX model (nude mouse xenograft); conditions: 10 mg/kg iv, BIW × 3 doses
Text: as §1

[4] = test system: esophageal squamous carcinoma cell KYSE-150; assay: Tumor growth inhibition in KYSE-150 CDX model (nude mouse xenograft); conditions: 10 mg/kg iv, BIW × 2 weeks
Text: as §1

Structure (SMILES): Nc1ccn([C@@H]2O[C@H](CO)[C@@H](O)C2(F)F)c(=O)n1 [Gemcitabine]
- Tumor inhibition on D33 ([1]; 90 mg/kg iv): 41.52%

Structure (SMILES): CC(=O)O[C@H]1C(=O)[C@@]2(C)[C@H]([C@H](OC(=O)c3ccccc3)[C@]3(O)C[C@H](OC(=O)[C@H](O)[C@@H](NC(=O)c4ccccc4)c4ccccc4)C(C)=C1C3(C)C)[C@]1(OC(C)=O)CO[C@@H]1C[C@@H]2O [Paclitaxel]
- Tumor inhibition on D21 [2]: 94.5%
- Tumor inhibition on D25 [3]: 79.96%
- Tumor inhibition on D21 [4]: 78.00%

Structure (SMILES): CC[C@@]1(O)C(=O)OCc2c1cc1n(c2=O)Cc2c-1nc1cc(F)c(C)c3c1c2[C@@H](NC(=O)CONC)CC3 [Compound 10]
- Tumor inhibition on D33 ([1]; 0.12 mg/kg iv): 16.75%
